Test results as given in PubChem BioAssay AID789 (SRMLSC, 2007).
Activity calls are given as the source filed them. The rule behind the calls is not given here.

Experiments:
[1] = growth inhibition of apl2Δ yeast, dose response, selectivity assay for post-Golgi transport modulator project, S. cerevisiae, secondary screen, background strain comparison (AID 789); conditions: S. cerevisiae background (wild-type parent) strain growth inhibition
[2] = test system: S. cerevisiae apl2Δ mutant growth inhibition; test: as above

Q: What does the source list for `CCN1CCN(c2c(Cl)cccc2NC(=O)c2ccc(Br)o2)CC1`?
A: IC50 [1]: > 10 µM; IC50 [2]: > 10 µM (inactive)

Q: Which results are given for `COCCNC(=O)C(c1ccc(F)cc1)N(CC1CCCO1)C(=O)CCC(=O)Nc1ccccn1` (stereo unspecified)?
A: IC50 [1]: > 10 µM; IC50 [2]: > 10 µM (inactive)

Q: For `Cc1ccc(C)c(NS(=O)(=O)c2cc(C(=O)N3CCc4ccccc4C3)ccc2Cl)c1`, which IC50 [1] is on record?
A: 6.88 µM

Q: What about the IC50 [2] of the same compound?
A: 5.74 µM
